87 compounds from PubChem BioAssay AID504322 (Emory University Molecular Libraries Screening Center, 2011) can be followed below.

The source made the active and inactive calls. The rule behind the calls is not given here. Some results are limits rather than exact numbers.

As a reminder, the IC50 is the point on the concentration scale where inhibition reaches its midpoint.

The experiment has as its system CHOP reporter cell assay, percent of control. The experiment in a line: CHOP reporter inhibitor potency, dose response, cell-based (AID 504322).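 Note: CHO cells carrying a CHOP reporter stimulated with tunicamycin to induce ER stress; potency is for inhibition of the stress-induced reporter signal.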

As for `C#CC(=O)N(c1cccc(OC)c1)C(C(=O)NC1CCCC1)c1cccs1` (configuration not stated), the IC50 was 4.53 µM.

On to `N#CC(C#N)=C1C=CC=CN1/C(=C\c1ccccc1Cl)C(=O)c1ccccc1`, for which the IC50 is > 10 µM (inactive).

As to `CC1(C)CC(C(CCN(Cc2ccccc2)C(=O)c2ccco2)c2ccc(F)cc2)CCO1` (configuration not stated), the IC50 is 9.7 µM (inactive).

Turning to `CCOc1cccc(C(=O)Nc2cccc(-c3nnc(-c4ccc(C)cc4)o3)c2)c1`, the IC50 was 2.62 µM.

In the case of `O=C1c2ccccc2C(=O)c2c1oc(C(F)(F)F)c2C(=O)c1ccccc1`, the IC50 was 9.61 µM (inactive).

For the compound `CCOc1cc(C)c(-c2onc(C(F)(F)F)c2-c2csc(C)n2)c(O)c1`, the IC50 is > 10 µM (inactive).

On to `CC(C)Cc1ccc(C(C)C(=O)Nc2nccs2)cc1` (configuration not stated), for which the IC50 was > 10 µM (inactive).

Consider `O=C(Nc1cccc(Cl)c1)Nc1ccnc(-c2cccnc2)n1`, for which the IC50 is > 10 µM (inactive).

Turning to `COc1ccccc1-c1cc(C(F)(F)F)nc(S(=O)(=O)CCCC(=O)NC(C)C)n1`, the IC50 is 9.35 µM (inactive).

`O=c1c2ccccc2nc2n1CCN2Cc1ccc(Cl)cc1`: the IC50 was 9.8 µM (inactive).

As for `O=[N+]([O-])c1cc(S(=O)(=O)C(F)(F)F)ccc1Sc1nc2ccccc2[nH]1`, the IC50 was 9.3 µM (inactive).

For `O=C(Nc1cc(N2CCOCC2)ncn1)NC1(C(F)(F)F)Oc2ccc(Cl)cc2O1` (configuration not stated), the IC50 was > 10 µM (inactive).

Regarding `COc1cc(OC)nc(-n2ncc(Br)c(Br)c2=O)n1`, the IC50 is 1.93 µM.

With `CCC1CCCCN1S(=O)(=O)c1ccc(C(=O)Nc2nnc(-c3ccccc3Cl)o2)cc1` (configuration not stated), the IC50 is 9.92 µM (inactive).

Turning to `COC(=O)CS(=O)(=O)c1nnc([C@H](Cc2ccccc2)NC(=O)OC(C)(C)C)o1`, the half-maximal inhibitory concentration (IC50) was 4.68 µM.

For `Cc1nc(NC(=O)CSc2nc3cccnc3n2Cc2ccccc2)sc1C`, the IC50 is > 10 µM (inactive).

`CC(C)c1nnc(NC(=O)c2c(O)c3cccc4c3n(c2=O)CCC4)s1`: the IC50 was 4.99 µM (inactive).

For the compound `C=C(C)Cn1c(N2CCC(Cc3ccccc3)CC2)nc2c1c(=O)[nH]c(=O)n2C`, the IC50 was 8 µM (inactive).

For the compound `CCCCCc1c(C)nc(NCc2ccccc2)[nH]c1=O`, the IC50 is 3.65 µM.

As for `CC(C)C[C@H](NC(=O)OC(C)(C)C)C(=O)N/N=C/C1=Cc2ccccc2OC1C` (some centres not stated), the IC50 is 2.31 µM.

For `Cc1ccc(Nc2nc(N)nc(CN3CCN(c4ccccc4)CC3)n2)cc1Cl`, the IC50 was 8.47 µM.

For the compound `O=C1CC(c2ccco2)CC(O)=C1C=Nc1ccccc1-c1ccccc1` (configuration not stated), the IC50 is 2.84 µM (inactive).

`CCn1c(C)nc2cc(-c3nc4n(n3)Cc3ccccc3-4)ccc21`: the IC50 was < 0.16 µM (inactive).

For `Cc1cc(C)n(-c2nc(Nc3ccccc3C(F)(F)F)nc(-n3nc(C)cc3C)n2)n1`, the IC50 is 3.93 µM (inactive).

Consider `Cc1nn(Cc2c(Cl)cccc2Cl)c(C)c1NC(=O)c1cn(-c2ccccc2)nc1-c1ccccc1`, for which the concentration for half-maximal inhibition (IC50) is 4.8 µM.

`Nc1c(C(=O)Nc2nc3ccccc3s2)sc2nc(-c3cccs3)ccc12`: the IC50 is 7.44 µM (inactive).

On to `Cc1cccc(C(=O)c2cnc3ccccc3c2-c2ccccc2)c1`, for which the IC50 is > 10 µM (inactive).

Regarding `CC(C)(C)c1ccc(NC(=O)Nc2ccc(F)cc2)cc1`, the IC50 was > 10 µM (inactive).

As for `CCC(=O)N1N=C(c2c(-c3ccccc3)c3cc(Cl)ccc3[nH]c2=O)CC1c1ccco1` (configuration not stated), the IC50 is 8.96 µM (inactive).

Consider `Cc1cc(C2=NNC(=NC3CC3)SC2)c(C)n1-c1ccccc1F`, for which the IC50 is under 0.16 µM.

For `COc1cc(/C=C/c2nc(N)nc(-c3ccccc3O)n2)cc(OC)c1OC`, the IC50 is > 10 µM (inactive).

As for `CCCCS(=O)(=O)/C=C\C=C/S(=O)(=O)CCCC`, the IC50 is 2.12 µM.

As for `CCOc1ccc(-c2n[nH]c(C)c2Oc2ccc(OC)cc2)c(O)c1`, the IC50 is > 10 µM (inactive).

Consider `O=c1[nH]c(NNC(=S)NC2CCCCC2)nc2c1C1(CCCC1)Cc1ccccc1-2`, for which the IC50 is 4.1 µM (inactive).

Turning to `CCCCCCn1c(CN2CCCC(C)C2)nc2c1c(=O)n(C)c(=O)n2C` (configuration not stated), the IC50 was > 10 µM (inactive).

Regarding `O=C1CC(Sc2nnnn2-c2ccccc2)C(=O)N1c1cccc(Cl)c1` (configuration not stated), the IC50 is > 10 µM (inactive).

For `CCOC(=O)/C=C/S(=O)(=O)c1ccc(NC(C)=O)cc1`, the IC50 was 4.78 µM.

With `CN(C)c1ccc(C(CNS(=O)(=O)c2ccc(F)c(F)c2)c2c[nH]c3ccccc23)cc1` (configuration not stated), the IC50 was 6.39 µM (inactive).

Regarding `Cc1ccc(/C=N/NC(=O)CSCc2ccc(Cl)cc2)cc1`, the IC50 is 9.83 µM (inactive).

Take `O=C1C=CC(=O)N1N(c1ccccc1)c1ccccc1`: the IC50 is > 10 µM (inactive).

For the compound `O=C(NNc1ccccc1Br)C(O)(c1cccc(C(F)(F)F)c1)c1cccc(C(F)(F)F)c1`, the IC50 is 2.14 µM.

On to `Cc1cc(C)cc(OC2CCCCC2NS(=O)(=O)c2ccccc2)c1` (configuration not stated), for which the IC50 is > 10 µM (inactive).

Take `Cc1ccc(NC(=O)CSc2nc3ccccc3c3nc(CCc4c(C)n[nH]c4C)nn23)cc1F`: the IC50 was 9.71 µM (inactive).

For the compound `CCNC(=O)c1c(NC(=O)c2cc(-c3cc(C)ccc3O)n[nH]2)sc2c1CCCC2`, the IC50 was 9.58 µM (inactive).

For the compound `CCOc1cc(NC(=S)NCC(C)C)c(OCC)cc1NC(=O)c1cccs1`, the IC50 is > 10 µM (inactive).

As to `CCCOc1ccc(N2C(=O)CC(SC(=NC)Nc3ccc(F)cc3)C2=O)cc1` (configuration not stated), the IC50 was > 10 µM (inactive).

In the case of `O=C(Nc1ccc(C(O)(C(F)(F)F)C(F)(F)F)cc1)c1ccc(Cl)c([N+](=O)[O-])c1`, the IC50 is 4.58 µM (inactive).

In the case of `COc1ccccc1C(=O)NC(=Nc1nc2ccccc2o1)NC(=O)c1ccccc1OC`, the IC50 is 9.43 µM (inactive).

As for `O=C(NCc1nc(-c2ccc(C(F)(F)F)cc2)no1)Nc1ccc(OC(F)(F)F)cc1`, the IC50 is 2.03 µM.

In the case of `O=C(Nc1ccccc1NC(=O)NC1CCCCC1)NC1CCCCC1`, the IC50 was 8.46 µM (inactive).

In the case of `O/N=C(\c1ccc(Cl)cc1Cl)c1ncc(C(F)(F)F)cc1Cl`, the IC50 was 2.2 µM (inactive).

With `CCC(C)[C@@H](NC(=O)OC(C)(C)C)c1nnc(S(=O)(=O)Cc2cccc(C)c2)o1` (some centres not stated), the IC50 was 4.78 µM.

Consider `COc1ccc(NC(=O)/C(Cl)=C(/Cl)S(=O)(=O)Cc2ccc(C)cc2)cn1`, for which the IC50 was > 10 µM (inactive).

As for `O=C(Oc1ccc(O)cc1)C12CC3CC(CC(C3)C1)C2`, the IC50 was > 10 µM (inactive).

As to `CCOC(=O)N=Nc1c2ccccc2c2nc3no[nH]c3nc12`, the IC50 was 4.21 µM.

On to `C=C(C)COc1ccc(-c2n[nH]c(C)c2-c2ccc(Br)cc2)c(O)c1`, for which the IC50 is 9.53 µM (inactive).

Regarding `FC(F)(F)c1cccc(NC(=S)N2CCN(c3cccc(C(F)(F)F)c3)CC2)c1`, the IC50 was 9.67 µM (inactive).

Regarding `CC(=O)NCc1ccc(C(=O)CCl)s1`, the IC50 was 9.42 µM (inactive).

On to `CC(C)Oc1ccc(CNC(=O)CC(c2ccccc2)c2cc(Cl)ccc2O)cc1` (configuration not stated), for which the IC50 was 9.59 µM (inactive).

For `O=S(=O)(Nc1cc(Sc2cccc3cccnc23)c(O)c2ccccc12)c1ccc(F)cc1`, the IC50 was 2.72 µM.

On to `CCCCN=c1scc(-c2ccc3c(c2)NC(=O)CO3)n1N=C1CCCC1`, for which the IC50 is 8 µM (inactive).

Take `Cc1nn(Cc2c(Cl)cccc2Cl)c(C)c1NC(=O)c1cc(C(C)C)on1`: the IC50 is > 10 µM (inactive).

Turning to `CC1=CCC[C@@H]2[C@@](C)(CC/C(C)=C/C(=O)O)[C@H](C)CC[C@@]12C`, the IC50 was 9.68 µM (inactive).

For `CCOc1cc(S(=O)(=O)Nc2ccccc2CC)ccc1Cl`, the IC50 is 7 µM (inactive).

As to `Cc1ccc(C2CN(C)C3(C(=O)Nc4ccccc43)C23COc2ccccc2C3=O)cc1` (configuration not stated), the IC50 is > 10 µM (inactive).

As to `Cc1cc(Cl)ccc1OCc1n[nH]c(=S)n1C1CCCCC1`, the IC50 is > 10 µM (inactive).

For `CCCCn1c(=O)[nH]c(=O)c2c1nc(-c1ccc(OCCC)c(OCC)c1)n2C`, the IC50 is > 10 µM (inactive).

On to `Clc1ccc2c(N/N=C/c3ccc(Br)cc3)ccnc2c1`, for which the IC50 was 9.92 µM (inactive).

Regarding `Cc1ccc(C(=O)Nc2cnc3ccccc3c2)cc1`, the IC50 is 8.6 µM (inactive).

As to `Cc1ccc2[nH]c3c(c2c1)CN(C(=O)CN1CCN(c2cccc(C)c2C)CC1)CC3`, the IC50 is 8.33 µM (inactive).

Consider `COc1ccc(Cn2c(SCc3cc(C)ccc3C)nc3cc(OC)c(OC)cc3c2=N)cc1`, for which the IC50 is 3.55 µM (inactive).

As to `O=C(NCc1ccccc1Cl)c1ccc(S(=O)(=O)Nc2cccc(C(F)(F)F)c2)cc1`, the IC50 was > 10 µM (inactive).

Turning to `CCc1ccc2c(c1)C(c1ccc([N+](=O)[O-])cc1)=NNC(c1ccc(C)cc1)=N2`, the IC50 is > 10 µM (inactive).

`Cc1cccc(/C=C2/S/C(=N/N=C3\CC4CCC3(C)C4(C)C)NC2=O)c1` (configuration not stated): the IC50 is 4.97 µM (inactive).

As for `COc1ccc(C(=O)Nc2nnc(-c3ccco3)s2)cc1`, the IC50 is 8.58 µM (inactive).

Turning to `CSC(SC)=C(C#N)C(=O)c1ccccc1`, the IC50 is > 10 µM (inactive).

In the case of `CC(C)(C)c1nnc(N/N=C/c2cc(Br)ccc2O)n(N)c1=O`, the IC50 is 5.11 µM (inactive).

Regarding `Cc1ccc(-c2nnc(-c3ccc(NC(=O)Cc4cccs4)cc3)o2)cc1`, the IC50 is 8.41 µM (inactive).

As for `CC(C)C[C@H](NC(=O)c1[nH]cnc1C(=O)Nc1ccccc1)C(=O)OC(C)(C)C`, the IC50 was 5.95 µM (inactive).

As to `CN1C(=O)/C(=C/c2cc(N=Nc3ccccc3)ccc2O)SC1=S`, the IC50 was 4.49 µM (inactive).

`O=C(ONc1ccc(N=NC(=O)c2ccccc2O)cc1)c1ccccc1`: the IC50 was > 10 µM (inactive).

As to `Cc1cc(C(=O)COC(=O)c2ccccc2O)c(C)n1Cc1cccs1`, the IC50 is < 0.16 µM (inactive).

For the compound `O=C(Nc1ccc(Br)c(C(F)(F)F)c1)c1ccc(C(F)(F)F)cc1`, the IC50 was 9.82 µM (inactive).

Take `CC1CCC(n2c(=S)[nH]c3ccccc3c2=O)CC1` (configuration not stated): the IC50 is > 10 µM (inactive).

Consider `FC(F)(F)c1cccc(NC(=S)Nc2ccc(Cl)cc2Cl)c1`, for which the IC50 is 6.1 µM (inactive).

With `Nc1ccc(N2CCCCCC2)cc1`, the IC50 is > 10 µM (inactive).

As for `Cc1sc2ncnc(N3CCCCC3C)c2c1C` (configuration not stated), the IC50 was > 10 µM (inactive).
